Data taken from patent publication US6737383B1, “Herbicidal oxadiazolidines” (priority 1999, dated 2004).

Experiments:
bedstraw = assay: Test B pre/postemergence bedstraw; format: in vivo, Galium aparine; conditions: for Bedstraw plant response rating (0 to 10 scale): 0 is no effect
Method in brief: (§1)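 Test chemicals in a non-phytotoxic solvent mixture with surfactant were sprayed preemergence onto planted seeds and postemergence onto plants 2 to 18 cm tall (1- to 4-leaf stage). After twelve to sixteen days in a greenhouse, injury was visually rated against untreated controls from 0 (no effect) to 10 (complete control).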

pigweed = assay: Test B pre/postemergence pigweed; format: in vivo, Amaranthus retroflexus; conditions: for Redroot pigweed plant response rating (0 to 10 scale): 0 is no effect
Method in brief: as §1

rice = assay: Test B flood test rice; format: in vivo, Oryza sativa
Method in brief: (§2)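 Each value is a visual injury score relative to controls, with 10 meaning complete control and 0 no effect. Evaluation took place twelve to sixteen days after the 2-leaf-stage plants were treated and kept in the greenhouse.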

bamyardgrass = assay: Test B flood test barnyardgrass; format: in vivo, Echinochloa crus-galli
Method in brief: as §2

common groundsel = assay: Test D common groundsel; format: in vivo, Senecio vulgaris; conditions: Preemergence, 0 to 100 scale
Method in brief: (§3)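 Greenhouse pots, seeds in sandy loam; compounds formulated in non-phytotoxic solvent with surfactant; preemergence treatments went on the soil surface within one day of planting. Injury rated visually 14 to 21 days after application on a 0 (none) to 100 (complete control) scale.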

purple nutsedge = assay: Test D purple nutsedge; format: in vivo, Cyperus rotundus; conditions: Preemergence, 0 to 100 scale
Method in brief: as §3

winter wheat [1] = assay: Test E winter wheat; format: in vivo, Triticum aestivum; conditions: Postemergence; for Plant response rating, Wheat (winter): 0 to 100 scale; for Wheat (winter) plant response rating: Rate 250 g/ha, 0 to 100 scale where 0 is no effect and 100 is complete control
Method in brief: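 For postemergence, sowings are timed so plants reach the 1- to 4-leaf stage at spraying. Test compound is applied in a surfactant-containing solvent mixture that is non-phytotoxic. Response is judged by eye against untreated controls after approximately 21 to 28 days.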

blackgrass = assay: Test E blackgrass; format: in vivo, Alopecurus myosuroides; conditions: Preemergence; for Blackgrass plant response rating (0 to 100 scale): Rate 250 g/ha
green foxtail = assay: Test E green foxtail; format: in vivo, Setaria viridis; conditions: Preemergence; for Green foxtail plant response rating (0 to 100 scale): Rate 250 g/ha
Italian ryegrass = assay: Test E Italian ryegrass; format: in vivo, Lolium multiflorum; conditions: Preemergence; for I. Ryegrass plant response rating (0 to 100 scale): Rate 250 g/ha
winter wheat [2] = assay: Test E winter wheat; format: in vivo, Triticum aestivum; conditions: Preemergence; for Wheat (winter) plant response rating (0 to 100 scale): Rate 250 g/ha
wild oat = assay: Test E wild oat; format: in vivo, Avena fatua; conditions: Preemergence; for Wild oat plant response rating (0 to 100 scale): Rate 250 g/ha
winter barley = assay: Test E winter barley; format: in vivo, Hordeum vulgare; conditions: Preemergence; for Barley (winter) plant response rating (0 to 100 scale): Rate 250 g/ha
[3] = Postemergence, Rate 125 g/ha, scale of 0 to 10 where 0 is no effect and 10 is complete control
[4] = Preemergence, Rate 31 g/ha, visual rating, scale 0 to 10 (0 no effect, 10 complete control)
[5] = Preemergence, Rate 62 g/ha, scale 0 to 10 (0 no effect, 10 complete control)
[6] = Preemergence, Rate 125 g/ha, 10 is complete control
[7] = Preemergence, Rate 250 g/ha, scale 0 to 10, 0 is no effect, 10 is complete control
[8] = Preemergence, Rate 500 g/ha, scale 0 to 10 (0 no effect, 10 complete control)
[9] = Rate 31 g/ha, Postemergence, scale 0 to 10
[10] = Rate 62 g/ha, Postemergence, scale of 0 to 10 where 0 is no effect and 10 is complete control
[11] = Rate 250 g/ha, Postemergence, scale 0 to 10, 0 is no effect, 10 is complete control
[12] = Rate 500 g/ha, Postemergence, scale 0 to 10, 0 no effect, 10 complete control
[13] = Rate 500 g/ha, Postemergence, scale 0 to 10
[14] = Postemergence (flood test species), Rate 125 g/ha, scale of 0 to 10 where 0 is no effect and 10 is complete control
[15] = Rate 31 g/ha, Postemergence section (flood test species), scale 0 to 10
[16] = Rate 62 g/ha, Postemergence section, flood test species, scale of 0 to 10 where 0 is no effect and 10 is complete control
[17] = Rate 62 g/ha, headed Pre-emergence (flood test species), scale 0 to 10 (0 no effect, 10 complete control)
[18] = Rate 125 g/ha, Pre-emergence, flood test species, scale 0 to 10 where 0 is no effect and 10 is complete control
[19] = Rate 250 g/ha, Postemergence (flood test), scale 0 to 10, 0 is no effect, 10 is complete control
[20] = Rate 250 g/ha, Pre-emergence, flood-test species, scale 0 to 10, 0 is no effect, 10 is complete control
[21] = Rate 500 g/ha, headed Pre-emergence (flood test species), scale 0 to 10 (0 no effect, 10 complete control)
[22] = Rate 16 g/ha, 0 no injury, 100 complete control
[23] = Rate 32 g/ha, 0 no injury, 100 complete control
[24] = Rate 64 g/ha, 0 no injury, 100 complete control
[25] = Rate 125 g/ha, 0 no injury, 100 complete control
[26] = Rate 500 g/ha, 0 no effect, 100 complete control
[27] = Rate 31 g/ha, 0 to 100 scale, 0 no effect, 100 complete control
[28] = Rate 62 g/ha, 0 to 100 scale, 0 no effect, 100 complete control
[29] = Rate 125 g/ha, 0 to 100 scale (0 no effect, 100 complete control)
[30] = Rate 500 g/ha, 0 to 100 scale where 0 is no effect and 100 is complete control

## C=CCn1c(=O)on(C(=O)N(c2ccc(F)cc2)C(C)C)c1=O [Compound 146]
bedstraw; [3]
  Bedstraw plant response rating: 6
bedstraw; [4]
  Bedstraw plant response rating: 0
bedstraw; [5]
  Bedstraw plant response rating: 9
bedstraw; [6]
  Bedstraw plant response rating (0 to 10 scale): 9
bedstraw; [7]
  Bedstraw plant response rating: 10
bedstraw; [8]
  Bedstraw plant response rating: 7
bedstraw; [9]
  Bedstraw plant response rating: 0
bedstraw; [10]
  Bedstraw plant response rating: 2
bedstraw; [11]
  Plant response rating, Bedstraw: 7
bedstraw; [12]
  Bedstraw plant response rating: 8
pigweed; [3]
  Redroot pigweed plant response rating: 6
pigweed; [4]
  Redroot pigweed plant response rating: 10
pigweed; [5]
  Redroot pigweed plant response rating: 10
pigweed; [6]
  Redroot pigweed plant response rating (0 to 10 scale): 10
pigweed; [7]
  Redroot pigweed plant response rating: 10
pigweed; [8]
  Redroot pigweed plant response rating: 10
pigweed; [9]
  Redroot pigweed plant response rating: 0
pigweed; [10]
  Redroot pigweed plant response rating: 4
pigweed; [11]
  Plant response rating, Redroot pigweed: 6
pigweed; [13]
  Redroot pigweed plant response rating: 8
rice; [14]
  Rice plant response rating: 0
rice; [15]
  Rice plant response rating: 0
rice; [16]
  Rice plant response rating: 0
rice; [17]
  Rice plant response rating: 0
rice; [18]
  Rice plant response rating: 0
rice; [19]
  Plant response rating, Rice: 2
rice; [20]
  Rice plant response rating: 0
rice; [21]
  Plant response rating, Rice: 0
rice; Rate 500 g/ha, listed under Postemergence (flood test species), scale 0 to 10
  Rice plant response rating: 7
bamyardgrass; [14]
  Barnyardgrass plant response rating: 0
bamyardgrass; [15]
  Barnyardgrass plant response rating: 0
bamyardgrass; [16]
  Barnyardgrass plant response rating: 0
bamyardgrass; [17]
  Barnyardgrass plant response rating: 0
bamyardgrass; [18]
  Barnyardgrass plant response rating: 0
bamyardgrass; [19]
  Plant response rating, Barnyardgrass: 1
bamyardgrass; [20]
  Barnyardgrass plant response rating: 1
bamyardgrass; [21]
  Plant response rating, Barnyardgrass: 5
bamyardgrass; Rate 500 g/ha, listed under Postemergence (flood test species), scale 0 to 10, 0 no effect, 10 complete control
  Barnyardgrass plant response rating: 9
Common groundsel; [22]
  Plant response rating, Com. groundsel: 65
Common groundsel; [23]
  Plant response rating, Com. groundsel: 0
Common groundsel; [24]
  Plant response rating, Com. groundsel: 0
Common groundsel; [25]
  Plant response rating, Com. groundsel: 75
Common groundsel; Rate 250 g/ha
  Plant response rating, Com. groundsel: 85
Common groundsel; Rate 500 g/ha
  Plant response rating, Com. groundsel: 100
Purple nutsedge; [22]
  Plant response rating, Purple nutsedge: 40
Purple nutsedge; [23]
  Plant response rating, Purple nutsedge: 40
Purple nutsedge; [24]
  Purple nutsedge plant response rating: 65
Purple nutsedge; [25]
  Purple nutsedge plant response rating: 70
Purple nutsedge; Rate 250 g/ha
  Plant response rating, Purple nutsedge: 75
Purple nutsedge; Rate 500 g/ha
  Plant response rating, Purple nutsedge: 100
Winter wheat [1]; Rate 31 g/ha, 0 no effect, 100 complete control
  Plant response rating, Wheat (winter): 30
Winter wheat [1]; Rate 62 g/ha
  Plant response rating, Wheat (winter): 20
Winter wheat [1]; Rate 125 g/ha
  Plant response rating, Wheat (winter): 40
Winter wheat [1]; [26]
  Plant response rating, Wheat (winter): 20
Winter wheat [1]
  Wheat (winter) plant response rating: 60
blackgrass; [27]
  Plant response rating, Blackgrass: 20
blackgrass; [28]
  Plant response rating, Blackgrass: 70
blackgrass; [29]
  Plant response rating, Blackgrass: 85
blackgrass
  Blackgrass plant response rating (0 to 100 scale): 90
blackgrass; [30]
  Plant response rating, Blackgrass: 70
Green foxtail; [27]
  Plant response rating, Green foxtail: 50
Green foxtail; [28]
  Plant response rating, Green foxtail: 55
Green foxtail; [29]
  Plant response rating, Green foxtail: 50
Green foxtail
  Green foxtail plant response rating (0 to 100 scale): 65
Green foxtail; [30]
  Plant response rating, Green foxtail: 100
Italian ryegrass; [27]
  Plant response rating, I. Ryegrass: 50
Italian ryegrass; [28]
  Plant response rating, I. Ryegrass: 40
Italian ryegrass; [29]
  Plant response rating, I. Ryegrass: 50
Italian ryegrass
  I. Ryegrass plant response rating (0 to 100 scale): 60
Italian ryegrass; [30]
  Plant response rating, I. Ryegrass: 90
Winter wheat [2]; [27]
  Plant response rating, Wheat (winter): 20
Winter wheat [2]; [28]
  Plant response rating, Wheat (winter): 0
Winter wheat [2]; [29]
  Plant response rating, Wheat (winter): 10
Winter wheat [2]
  Wheat (winter) plant response rating (0 to 100 scale): 0
Winter wheat [2]; [30]
  Plant response rating, Wheat (winter): 100
Wild oat; [27]
  Plant response rating, Wild oat: 40
Wild oat; [28]
  Plant response rating, Wild oat: 25
Wild oat; [29]
  Plant response rating, Wild oat: 30
Wild oat
  Wild oat plant response rating (0 to 100 scale): 50
Wild oat; [30]
  Plant response rating, Wild oat: 85
Winter barley; [27]
  Plant response rating, Barley (winter): 20
Winter barley; [28]
  Plant response rating, Barley (winter): 10
Winter barley; [29]
  Plant response rating, Barley (winter): 10
Winter barley
  Barley (winter) plant response rating (0 to 100 scale): 10
Winter barley; [30]
  Plant response rating, Barley (winter): 95

## Cc1ccc(N(C(=O)n2oc(=O)n(C(C)C)c2=O)C(C)C)cc1 [Compound 132]
bedstraw; [3]
  Bedstraw plant response rating: 0
bedstraw; [5]
  Bedstraw plant response rating: 0
bedstraw; [6]
  Bedstraw plant response rating (0 to 10 scale): 0
bedstraw; [7]
  Bedstraw plant response rating: 9
bedstraw; [8]
  Bedstraw plant response rating: 10
bedstraw; [10]
  Bedstraw plant response rating: 0
bedstraw; [11]
  Plant response rating, Bedstraw: 2
bedstraw; [12]
  Bedstraw plant response rating: 7
pigweed; [3]
  Redroot pigweed plant response rating: 0
pigweed; [5]
  Redroot pigweed plant response rating: 2
pigweed; [6]
  Redroot pigweed plant response rating (0 to 10 scale): 6
pigweed; [7]
  Redroot pigweed plant response rating: 7
pigweed; [8]
  Redroot pigweed plant response rating: 7
pigweed; [10]
  Redroot pigweed plant response rating: 0
pigweed; [11]
  Plant response rating, Redroot pigweed: 0
pigweed; [13]
  Redroot pigweed plant response rating: 2
Common groundsel; [24]
  Plant response rating, Com. groundsel: 0
Purple nutsedge; [24]
  Purple nutsedge plant response rating: 0
Winter wheat [1]; Rate 125 g/ha
  Plant response rating, Wheat (winter): 20
Winter wheat [1]; [26]
  Plant response rating, Wheat (winter): 80
Winter wheat [1]
  Wheat (winter) plant response rating: 50
blackgrass; [29]
  Plant response rating, Blackgrass: 20
blackgrass
  Blackgrass plant response rating (0 to 100 scale): 60
blackgrass; [30]
  Plant response rating, Blackgrass: 75
Green foxtail; [29]
  Plant response rating, Green foxtail: 60
Green foxtail
  Green foxtail plant response rating (0 to 100 scale): 98
Green foxtail; [30]
  Plant response rating, Green foxtail: 100
Italian ryegrass; [29]
  Plant response rating, I. Ryegrass: 20
Italian ryegrass
  I. Ryegrass plant response rating (0 to 100 scale): 100
Italian ryegrass; [30]
  Plant response rating, I. Ryegrass: 100
Winter wheat [2]; [29]
  Plant response rating, Wheat (winter): 30
Winter wheat [2]
  Wheat (winter) plant response rating (0 to 100 scale): 40
Winter wheat [2]; [30]
  Plant response rating, Wheat (winter): 60
Wild oat; [29]
  Plant response rating, Wild oat: 35
Wild oat
  Wild oat plant response rating (0 to 100 scale): 50
Wild oat; [30]
  Plant response rating, Wild oat: 65
Winter barley; [29]
  Plant response rating, Barley (winter): 10
Winter barley
  Barley (winter) plant response rating (0 to 100 scale): 50
Winter barley; [30]
  Plant response rating, Barley (winter): 60
